# Columns and labels:
# [1] = target: EZH1 (Homo sapiens, UniProt Q92800); assay: AlphaLISA enzyme activity inhibition, EZH1; format: biochemical; conditions: for inhibition at 0.005 µM: 5nM test substance; for inhibition at 0.01 µM: 10nM test substance
# Summary of the method: (§1)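 Enzyme inhibition rate was calculated relative to DMSO from AlphaLISA signal, with acceptor beads added after a 2 h methylation reaction and donor beads 1 h later. Each enzyme, EZH1 or EZH2, was pre-mixed with compound (final 5 nM or 10 nM) in Tris buffer pH 8.0 before histone H3 peptide and SAM initiated the reaction.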
# [2] = target: EZH2 (Homo sapiens, UniProt Q15910); assay: AlphaLISA enzyme activity inhibition, EZH2; format: biochemical; conditions: for inhibition at 0.005 µM: 5nM test substance; for inhibition at 0.01 µM: 10nM test substance
# Summary of the method: as §1
# [3] = test system: Lovo cells; assay: Cancer cell proliferation inhibition (Cell Counting Kit-8), colorectal cancer cell line; format: cell-based; conditions: Homo sapiens, LoVo, 264 h, 1000 nM, cultured seven to 11 days; read-out: % inhibition rate LoVo
# Summary of the method: (§2)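 Single-concentration test: 1000 nM compound, 7-11 day culture after seeding 100 to 1,000 cells per well in 10% FBS medium. Percent inhibition derived from Cell Counting Kit-8 signal relative to untreated control.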
# [4] = test system: G401 cells; assay: Cancer cell proliferation inhibition (Cell Counting Kit-8), rhabdoid tumor cell line; format: cell-based; conditions: Homo sapiens, G-401, 264 h, 1000 nM, cultured seven to 11 days; read-out: % inhibition rate G401
# Summary of the method: (§3)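 Single 1000 nM dose of test substance, applied to cells seeded at 100–1,000 per well in 10% FBS medium, then culture for seven to 11 days. CCK-8 read-out; inhibition rate expressed as percent relative to untreated control.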
# [5] = test system: MKN-45 cells; assay: Cancer cell proliferation inhibition (Cell Counting Kit-8), gastric cancer cell line; format: cell-based; conditions: Homo sapiens, MKN-45, 264 h, 1000 nM, cultured seven to 11 days; read-out: % inhibition rate MKN -45
# Summary of the method: as §3
# [6] = test system: SW-13 cells; assay: Cancer cell proliferation inhibition (Cell Counting Kit-8), adrenal cancer cell line; format: cell-based; conditions: Homo sapiens, SW13, 264 h, 1000 nM, cultured seven to 11 days; read-out: % inhibition rate SW-13
# Summary of the method: as §2
# [7] = test system: MIA-PaCa-2 cells; assay: Cancer cell proliferation inhibition (Cell Counting Kit-8), pancreatic cancer cell line; format: cell-based; conditions: Homo sapiens, MIA PaCa-2, 264 h, 1000 nM, cultured seven to 11 days; read-out: % inhibition rate MIA-Paca2
# Summary of the method: as §2
# [8] = test system: NCI-H1299 cells; assay: Cancer cell proliferation inhibition (Cell Counting Kit-8), lung cancer cell line; format: cell-based; conditions: Homo sapiens, NCI-H1299, 264 h, 1000 nM, cultured seven to 11 days; read-out: % inhibition rate NCI-H129 9
# Summary of the method: as §2
# Sequence of EZH2 (Q15910 whole entry, species assumed): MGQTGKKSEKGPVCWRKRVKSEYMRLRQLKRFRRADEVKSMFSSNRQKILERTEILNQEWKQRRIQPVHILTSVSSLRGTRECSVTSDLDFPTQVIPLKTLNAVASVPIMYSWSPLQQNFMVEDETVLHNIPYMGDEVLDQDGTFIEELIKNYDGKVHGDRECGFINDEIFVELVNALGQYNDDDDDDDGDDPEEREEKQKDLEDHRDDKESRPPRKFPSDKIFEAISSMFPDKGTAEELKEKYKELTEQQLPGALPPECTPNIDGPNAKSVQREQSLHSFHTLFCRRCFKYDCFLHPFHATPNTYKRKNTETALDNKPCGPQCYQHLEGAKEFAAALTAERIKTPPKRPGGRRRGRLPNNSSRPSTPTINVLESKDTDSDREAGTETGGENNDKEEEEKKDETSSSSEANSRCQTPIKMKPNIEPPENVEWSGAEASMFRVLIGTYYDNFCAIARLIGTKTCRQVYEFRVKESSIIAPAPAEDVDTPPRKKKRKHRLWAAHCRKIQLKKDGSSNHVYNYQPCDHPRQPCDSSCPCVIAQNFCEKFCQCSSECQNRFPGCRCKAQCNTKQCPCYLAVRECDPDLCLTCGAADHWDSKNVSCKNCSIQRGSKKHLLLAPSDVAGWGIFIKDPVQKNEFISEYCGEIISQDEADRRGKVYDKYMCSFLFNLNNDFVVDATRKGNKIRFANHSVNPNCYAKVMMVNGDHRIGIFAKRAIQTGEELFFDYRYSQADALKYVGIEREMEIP
# Sequence of EZH2 (O75530 whole entry partner, species assumed): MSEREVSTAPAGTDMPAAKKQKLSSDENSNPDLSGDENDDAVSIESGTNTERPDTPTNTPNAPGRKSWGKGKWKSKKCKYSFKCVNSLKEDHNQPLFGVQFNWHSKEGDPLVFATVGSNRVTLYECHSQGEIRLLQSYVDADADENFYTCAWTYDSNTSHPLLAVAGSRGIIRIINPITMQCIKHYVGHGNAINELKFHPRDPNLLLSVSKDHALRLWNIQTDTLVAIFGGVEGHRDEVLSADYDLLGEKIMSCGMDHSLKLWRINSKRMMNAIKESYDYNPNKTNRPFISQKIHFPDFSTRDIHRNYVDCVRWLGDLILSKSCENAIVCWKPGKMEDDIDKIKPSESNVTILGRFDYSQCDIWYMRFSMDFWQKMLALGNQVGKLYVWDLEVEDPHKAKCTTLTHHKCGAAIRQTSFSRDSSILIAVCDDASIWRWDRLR
# Sequence of EZH2 (Q15022 whole entry partner, species assumed): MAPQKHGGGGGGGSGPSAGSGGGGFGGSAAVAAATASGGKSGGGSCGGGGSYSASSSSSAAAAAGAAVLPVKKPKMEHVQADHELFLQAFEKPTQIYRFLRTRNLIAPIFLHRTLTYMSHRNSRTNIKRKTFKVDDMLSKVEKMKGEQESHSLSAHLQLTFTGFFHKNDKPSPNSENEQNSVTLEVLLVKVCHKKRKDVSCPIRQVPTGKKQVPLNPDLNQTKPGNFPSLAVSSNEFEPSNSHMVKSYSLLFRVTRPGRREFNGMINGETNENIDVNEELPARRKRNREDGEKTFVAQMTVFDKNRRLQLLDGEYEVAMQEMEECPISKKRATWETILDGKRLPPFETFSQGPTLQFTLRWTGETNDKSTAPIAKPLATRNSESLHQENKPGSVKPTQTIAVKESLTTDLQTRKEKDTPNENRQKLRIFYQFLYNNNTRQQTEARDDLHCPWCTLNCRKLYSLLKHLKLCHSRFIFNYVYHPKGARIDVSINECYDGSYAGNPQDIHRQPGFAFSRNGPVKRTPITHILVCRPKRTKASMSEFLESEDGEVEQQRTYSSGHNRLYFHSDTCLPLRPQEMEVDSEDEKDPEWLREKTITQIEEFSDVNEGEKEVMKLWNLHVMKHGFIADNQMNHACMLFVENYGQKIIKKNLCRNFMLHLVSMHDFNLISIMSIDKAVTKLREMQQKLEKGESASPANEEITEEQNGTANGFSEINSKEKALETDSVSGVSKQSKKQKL
# Sequence of EZH1 (Q92800 whole entry, species assumed): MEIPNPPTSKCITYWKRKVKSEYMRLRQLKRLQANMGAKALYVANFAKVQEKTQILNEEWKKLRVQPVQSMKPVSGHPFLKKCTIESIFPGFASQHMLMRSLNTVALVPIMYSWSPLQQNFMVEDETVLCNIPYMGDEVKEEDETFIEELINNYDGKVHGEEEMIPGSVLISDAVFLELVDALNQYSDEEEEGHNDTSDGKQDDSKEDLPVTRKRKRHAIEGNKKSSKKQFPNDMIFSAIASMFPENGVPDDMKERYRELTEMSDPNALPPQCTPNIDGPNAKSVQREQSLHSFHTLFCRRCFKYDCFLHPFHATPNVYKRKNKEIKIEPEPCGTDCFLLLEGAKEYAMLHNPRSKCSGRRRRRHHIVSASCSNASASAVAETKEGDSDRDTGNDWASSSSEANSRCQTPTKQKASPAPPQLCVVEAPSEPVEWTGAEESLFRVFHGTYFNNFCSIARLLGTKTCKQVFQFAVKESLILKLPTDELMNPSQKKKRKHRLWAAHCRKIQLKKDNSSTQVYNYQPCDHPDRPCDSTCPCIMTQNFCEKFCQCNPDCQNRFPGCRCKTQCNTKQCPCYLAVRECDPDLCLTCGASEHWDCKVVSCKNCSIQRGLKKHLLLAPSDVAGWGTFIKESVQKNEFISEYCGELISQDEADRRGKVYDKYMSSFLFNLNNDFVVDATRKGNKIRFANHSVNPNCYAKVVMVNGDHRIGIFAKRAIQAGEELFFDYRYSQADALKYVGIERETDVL
# Sequence of EZH1 (O75530 whole entry partner, species assumed): as the sequence (O75530 whole entry partner, species assumed) above
# Sequence of EZH1 (Q15022 whole entry partner, species assumed): as the sequence (Q15022 whole entry partner, species assumed) above
SMILES,inhibition at 0.005 µM [1],inhibition at 0.01 µM [1],inhibition at 0.005 µM [2],inhibition at 0.01 µM [2],inhibition at 1 µM [3],inhibition at 1 µM [4],inhibition at 1 µM [5],inhibition at 1 µM [6],inhibition at 1 µM [7],inhibition at 1 µM [8]
"CCN(C)c1ccc(-c2cc(C(=O)NCc3c(SC)cc(C)[nH]c3=O)c(C)c3c2OC(C)(C2CCN(CC(F)F)CC2)O3)cn1 (single isomer, unassigned) [Compound 88, 2-(1-(2,2-difluoroethyl)piperidin-4-yl)-7-(6-(ethyl(methyl)amino)pyridin-3-yl)-2,4-dimethyl-N-((6-methyl-4-(methylthio)-2-oxo-1,2-dihydropyridin-3-yl)methyl)benzo[d][1,3]dioxole-5-carboxamide]",45.2%,62%,99.5%,99.9%,≥ 70%,≥ 70%,30 to 70%,30 to 70%,≤ 30%,≤ 30%
"CSc1cc(C)[nH]c(=O)c1CNC(=O)c1cc(-c2cnc(N(C)C)nc2)c2c(c1C)OC(C)([C@H]1CC[C@H](N(C)CC(F)(F)F)CC1)O2 (relative stereo) [Compound 22, 7-(2-(dimethylamino)pyrimidin-5-yl)-2,4-dimethyl-2-(trans-4-(methyl(2,2,2-trifluoroethyl)amino)cyclohexyl)-N-((6-methyl-4-(methylthio)-2-oxo-1,2-dihydropyridin-3-yl)methyl)benzo[d][1,3]dioxole-5-carboxamide]",53.1%,,81%,,≥ 70%,30 to 70%,30 to 70%,≤ 30%,≤ 30%,≤ 30%

# Continued, in another order:
inhibition at 0.005 µM [1],inhibition at 0.01 µM [1],inhibition at 0.005 µM [2],inhibition at 0.01 µM [2],SMILES,inhibition at 1 µM [3],inhibition at 1 µM [4],inhibition at 1 µM [5],inhibition at 1 µM [6],inhibition at 1 µM [7],inhibition at 1 µM [8]
28.6%,38.2%,45.8%,91.7%,"CSc1cc(C)[nH]c(=O)c1CNC(=O)c1cc(-c2ccc(N3C[C@@H](C)O[C@@H](C)C3)nc2)c2c(c1C)OC(C)([C@H]1CC[C@H](N(C)C3CCCCC3)CC1)O2 (stereo partly drawn) [Compound 114, 2-(trans-4-(cyclohexyl(methyl)amino)cyclohexyl)-7-(6-((2S,6R)-2,6-dimethylmorpholino)pyridin-3-yl)-2,4-dimethyl-N-((6-methyl-4-(methylthio)-2-oxo-1,2-dihydropyridin-3-yl)methyl)benzo[d][1,3]dioxole-5-carboxamide]",≥ 70%,≥ 70%,≤ 30%,30 to 70%,≤ 30%,≤ 30%
22%,35.2%,52.4%,91.6%,CSc1cc(C)[nH]c(=O)c1CNC(=O)c1cc(-c2ccc(N3C[C@@H](C)O[C@@H](C)C3)nc2)c2c(c1C)OC(C)([C@H]1CC[C@H](N(C)CC(F)F)CC1)O2 (stereo partly drawn) [Compound 109],≥ 70%,≥ 70%,30 to 70%,30 to 70%,≤ 30%,≤ 30%
6.1%,9.6%,37.3%,85.8%,"CSc1cc(C)[nH]c(=O)c1CNC(=O)c1cc(-c2ccc(N3C[C@@H](C)O[C@@H](C)C3)nc2)c2c(c1C)OC(C)([C@H]1CC[C@H](N(C)C(=O)C(F)(F)F)CC1)O2 (stereo partly drawn) [Compound 115, 7-(6-((2S,6R)-2,6-dimethylmorpholino)pyridin-3-yl)-2,4-dimethyl-N-((6-methyl-4-(methylthio)-2-oxo-1,2-dihydropyridin-3-yl)methyl)-2-(trans-4-(2,2,2-trifluoro-N-methylacetamido)cyclohexyl)benzo[d][1,3]dioxole-5-carboxamide]",≥ 70%,30 to 70%,≤ 30%,≤ 30%,≤ 30%,≤ 30%

# Source: EP4740948A1 (Dong Wha Pharm. Co., Ltd., priority 2023, dated 2025)
